{
  "source": "patent US5310745A",
  "about": "“Antiviral compounds” (priority 1992, dated 1994)",
  "key": {"[1]": {"experiment": "Pharmacokinetic and metabolism study, Rhesus monkey", "format": "in vivo", "experimental": "(§1) The parent tetrabutyrate compound consequently serves as an antivirally effective and useful pro-drug of the latter compound to which it is metabolized in the gut. […] The parent pro-drug was not detected. […] The oral bioactivity of the metabolite compound, measured as [^14 C]-metabolite compound, was determined to be between 28% and 50% in the Rhesus monkey, depending on the vehicle used (e.g., 0.5% methyl cellulose and 0.1% polysorbate in water). […] The blood levels of the metabolite compound, measured as part of a long term SIV infected monkey efficacy study, following oral dosing (high dose 750 mg/kg, low dose 250 mg/kg, administered every eight hours) with the pro-drug, yielded mean trough (cmin) plasma blood levels of the metabolite compound at eight hours post dosing of approximately 10 μg/mL and 6.8 μg/mL for the high and low doses, respectively."}, "sucrase": {"system": "sucrase", "experiment": "Sucrase inhibition locally in the gut", "format": "in vivo, monkey", "conditions": "normal, uninfected monkeys"}, "visna virus": {"system": "visna virus", "experiment": "Plaque reduction assay, inhibition of visna virus in vitro", "format": "cell-based", "parameters": "key to Antiviral Activity: A: active compound; I: inactive compound", "conditions": "Table 1", "source_text": "Visna virus, a lentivirus genetically very similar to the AIDS virus, is pathogenic for sheep and goats. See Sonigo et al., Cell 42, 369-382 (1985); Haase, Nature 322, 130-136 (1986). Inhibition of visna virus replication in vitro as a useful model for human immunodeficiency virus (HIV) and its inhibition by test compounds has been described by Franket al., Antimicrobial Agents and Chemotherapy 31 (9), 1369-1374 (1987). The N-butyl derivative of 1,5-dideoxy-1,5-imino-D-glucitol, also referred to as n-butyl-deoxynojirimycin (N-Bu-DNJ), was used as a control standard for comparison with various novel compounds of this invention.\nVarious compounds as prepared above were tested for inhibition of visna virus in vitro in a plaque reduction assay as follows:\n(§2) Sheep choroid plexus (SCP) cells were obtained from American Type Culture Collection (ATCC) catalogue number CRL 1700 and were routinely passaged in vitro in Dulbecco's Modified Eagles (DME) medium supplemented with 20% fetal bovine serum (FBS). SCP cells were passaged once per week at a 1:2 or 1:3 split ratio. Visna was titrated by plaque assay in six-well plates. Virus pools were stored at -70° C.\n(§3) SCP cells were cultured in 6-well plates to confluence. Wells were washed two times with serum free Minimal Essential Medium (MEM) to remove FBS. 0.2 ml of virus was added per well in MEM supplemented with 4 mM glutamine and gentamycin. After 1 hour adsorption, the virus was aspirated from each well. The appropriate concentration of each compound in 5 ml of Medium 199 (M-199) supplemented With 2% lamb serum, 4 mM glutamine, 0.5% agarose and gentamycin was added to each well. Cultures were incubated at 37° C. in a humidified 5% CO2 incubator for 3-4 weeks. To terminate the test: cultures were fixed in 10% formalin, the agar removed, the monolayers stained with 1% crystal violet and plaques counted. Each compound concentration was run in triplicate. […] 0 is no toxicity observed while 4 is total lysing of the cell monolayer."}, "[2]": {"system": "Sheep choroid plexus (SCP) cells", "experiment": "Toxicity of compounds in control wells without virus, graded morphologically", "format": "cell-based", "parameters": "key: 0: no toxicity; 4: total cell lysates", "conditions": "0 to 4 scale, Table 1", "experimental": "as §2, §3"}, "Diarrheagenic effect": {"experiment": "Diarrheagenic effect", "format": "in vivo, monkey", "conditions": "normal, uninfected monkeys"}, "[3]": {"system": "Sheep choroid plexus (SCP) cells", "experiment": "Toxicity of compounds in control wells without virus, graded morphologically", "format": "cell-based", "conditions": "0.1 mM; 0 to 4 scale; Table 1", "experimental": "as §2, §3"}, "[4]": {"experiment": "Pharmacokinetic and metabolism study, rat", "format": "in vivo", "experimental": "as §1"}, "[5]": {"conditions": "oral [14C] pro-drug, Rhesus monkey"}},
  "data": [
    {"smiles": "CCCCN1C[C@H](OC(=O)CCC)[C@@H](OC(=O)CCC)[C@H](OC(=O)CCC)[C@H]1COC(=O)CCC", "note": "[Example 16, 1,5-(Butylimino)-1,5-dideoxy-D-glucitol, tetrabutyrate]", "values": [
      {"measurement": "metabolic transformation in vivo", "setting": "[1]; Rhesus monkey", "result": "controlled, sustained levels of a metabolite"},
      {"measurement": "metabolic profiles of either radiolabeled compound (pro-drug, metabolite)", "setting": "[1]; monkey, oral, plasma and urine", "result": "the same in plasma and urine"},
      {"measurement": "parent pro-drug in plasma", "setting": "[1]; [5]", "result": "not detected"},
      {"measurement": "radiolabeled compound in plasma after oral pro-drug", "setting": "[1]; [5]", "result": "yielded only [^14 C]SC-metabolite compound in the plasma"},
      {"measurement": "inhibition of sucrase locally in the gut", "setting": "sucrase", "result": "does not significantly inhibit sucrase locally in the gut"},
      {"measurement": "Antiviral Activity", "setting": "visna virus; 0.001 mM", "result": "A"},
      {"measurement": "Antiviral Activity", "setting": "visna virus; 0.01 mM", "result": "A"},
      {"measurement": "Antiviral Activity", "setting": "visna virus; 0.1 mM", "result": "A"},
      {"measurement": "Antiviral Activity", "setting": "visna virus; 1.0 mM", "result": "Toxic"},
      {"measurement": "Toxicity", "setting": "[2]; 0.001 mM", "result": 0},
      {"measurement": "Toxicity", "setting": "[2]; 0.01 mM", "result": 0},
      {"measurement": "Toxicity", "setting": "[2]; 1.0 mM", "result": 4},
      {"measurement": "diarrheagenic results", "setting": "Diarrheagenic effect", "result": "negative diarrheagenic results"},
      {"measurement": "Toxicity", "setting": "[3]", "result": 1},
      {"measurement": "metabolic transformation in vivo", "setting": "[4]", "result": "controlled, sustained levels of a metabolite"},
      {"measurement": "parent pro-drug in plasma", "setting": "[4]; oral [14C] pro-drug", "result": "not detected"},
      {"measurement": "radiolabeled compound in plasma after oral pro-drug", "setting": "[4]; oral [14C] pro-drug", "result": "yielded only [^14 C]SC-metabolite compound in the plasma"},
      {"measurement": "parent pro-drug in portal plasma", "setting": "[4]; oral, portal plasma", "result": "no parent pro-drug detected"}
    ]}
  ]
}
